# pIC50: −log10 of the molar value. Where two headings read alike, the source gives them in different places.
# How the values were obtained:
# [1] = cited from earlier work
# [2] = system: CPA primary culture no. 2; experiment: Steroid profile by LC/MS-MS in CPA primary culture no. 2; assay type: cell-based, human; conditions: for 11-DOC absolute change vs control / 11-DOC percentage change vs control / 17-OHP absolute change vs control / 17-OHP percentage change vs control / Androstenedione absolute change vs control / Androstenedione percentage change vs control / Corticosterone absolute change vs control / Corticosterone percentage change vs control / Cortisol absolute change vs control / Cortisol percentage change vs control / DHEA absolute change vs control / DHEAS absolute change vs control / Prog absolute change vs control / Prog percentage change vs control / Testosterone absolute change vs control / Testosterone percentage change vs control: CPA no. 2, Basal, 3 days
# Description: (§1) To obtain primary cultures, adrenal specimens (adrenocortical adenomas, adrenal hyperplasias and adrenocortical carcinomas) were collected after adrenalectomy at the department of Surgery, Erasmus University Medical Center, Rotterdam, the Netherlands, between April 2016 and May 2018. The study was conducted under guidelines that have been approved by the Medical Ethics Committee of the Erasmus Medical Center and informed consent was obtained from all patients. Immediately after surgery, specimens were minced into small pieces of 2-3 mm^3, washed in culture medium and centrifuged for 5 minutes at 600 g. The tissue was stored overnight in culture medium at 4° C., where after the tissue was centrifuged again and the supernatant was removed. Fragments were dissociated using 10-25 ml collagenase type 1 (2 mg/ml: Sigma-Aldrich), followed by incubation at 37° C. for up to two hours. Ficoll (GE healthcare) density gradient separation was used once or twice as required in order to separate contaminating red blood cells from the tumor cells. Cell viability and cell amount were counted by trypan blue exclusion. Dissociated cells were plated at a density of 10^5 cells per well. ACTH-secreting corticotroph pituitary adenoma tissue from patients with Cushing's disease (n=2) was available after transsphenoidal surgery. Single-cell suspensions of the pituitary adenoma tissues were prepared as previously described in detail.
# (§2) Primary culture conditions for primary cultures were similar as described in the section ‘cell culture and compounds’, but with small adjustments: ACTH was used at a concentration of 85 pM (250 pg/mL), treatment was started 3-4 days after plating of the cells and cells were incubated for 3 days, and; for pituitary primary cultures, levoketoconazole and racemic ketoconazole were only tested at a concentration of 1 μM. Owing to a limited number of cells obtained from the specimens, not all experiments were carried out in every primary culture.
# (§3) Cortisol concentrations were measured in the supernatant using a chemiluminescence immunoassay system (Immulite 2000XPi; Siemens DPC Inc., Los Angeles, Calif., USA). In addition, we carried out multi-steroid analysis by liquid chromatography/mass spectrometry (LC/MS-MS) to accurately quantify androstenedione, corticosterone, cortisol, 11-deoxycortisol, DHEA, DHEAS, progesterone, 17-hydroxyprogesterone, and testosterone. Concentrations that were tested on the LC/MS-MS were closest to 50% inhibition or maximal inhibition of cortisol as determined by the immunoassay. Steroids were quantified with respect to a calibration series, with internal standards. Steroids were quantified on a Xevo TQS LC-MS/MS (Waters Chromatography).
# (§4) Statistical analysis was performed using Graphpad Prism 6.0 (Graphpad Software, San Diego, CA). Non-linear regression curve fitting program was used to calculate the half maximal inhibitory concentrations (IC50) on cortisol production. Effects of both compounds on the steroid profile were measured as absolute change compared to control and compared using the Student's t-test. When assessing differences between effects of both compounds, the percentage change was evaluated and compared in order to correct for differences in the vehicle treated control cells. Values of P<0.05 were considered statistically significant and data are presented as mean SEM.
# [3] = system: primary human adrenocortical carcinoma cultures; experiment: Cortisol production in primary adrenocortical carcinoma cultures; assay type: cell-based
# Description: as §1
# (§5) Owing to a limited number of cells obtained from the specimens, not all experiments were carried out in every primary culture.
# as §3, §4
# [4] = system: human primary adrenocortical cultures; experiment: Cortisol production in human primary adrenocortical cultures, comparison across cultures; assay type: cell-based
# Description: as §1, §2, §3, §4
# [5] = system: EAS associated adrenal hyperplasia cultures; experiment: Cortisol production in primary EAS associated adrenal hyperplasia cultures; assay type: cell-based, human
# Description: as §1, §5, §3, §4
# [6] = system: primary human corticotroph pituitary adenoma cultures; experiment: ACTH secretion corrected for cell number in primary corticotroph pituitary adenoma cultures; assay type: cell-based; conditions: both primary pituitary adenoma cultures, 1 μM, 7 days
# Description: as §1, with “Ficoll (GE healthcare) density gradient separation was used once or twice as required in order to separate contaminating red blood cells from the tumor cells.” left out, “Dissociated cells were plated at a density of 10^5 cells per well. ACTH-secreting corticotroph pituitary adenoma tissue from patients with Cushing's disease (n=2) was available after transsphenoidal surgery. Single-cell suspensions of the pituitary adenoma tissues were prepared as previously described in detail.” left out
# At the end of the AtT20 and primary pituitary adenoma culture experiments, medium was collected and supplemented with 1% of the protease inhibitor Trasylol to prevent degradation of ACTH. ACTH was measured using a commercially available, nonisotopic automatic chemiluminescence system (DPC Immulite).
# [7] = system: primary human corticotroph pituitary adenoma cultures; experiment: Cell amount in primary corticotroph pituitary adenoma cultures; assay type: cell-based; conditions: corticotroph pituitary adenoma primary culture no. 2, 1 μM, 7 days
# Description: as §1, with “ACTH-secreting corticotroph pituitary adenoma tissue from patients with Cushing's disease (n=2) was available after transsphenoidal surgery. Single-cell suspensions of the pituitary adenoma tissues were prepared as previously described in detail.” left out
# As a measure of cell number, DNA concentrations were determined using the bisbenzimide fluorescent dye (Hoechst 33258, Sigma Aldrich), as previously described.
# [8] = six of the ten conditions with direct comparison in the same patient
smiles,measurement,setting,value
"CC(=O)N1CCN(c2ccc(OCC3COC(Cn4ccnc4)(c4ccc(Cl)cc4Cl)O3)cc2)CC1 (racemic) [racemic ketoconazole, Ketoconazole]",accumulation in a subject's body over repeated dosing,[1],accumulate in a subject's body over repeated dosing
same,11-DOC absolute change vs control,[2]; 0.1 μM,+6.400 nmol/l
same,11-DOC percentage change vs control,[2]; 0.1 μM,(+2.4%)
same,17-OHP absolute change vs control,[2]; 0.1 μM,-0.4750 nmol/L
same,17-OHP percentage change vs control,[2]; 0.1 μM,(−2.4%)
same,Androstenedione absolute change vs control,[2]; 0.1 μM,-32.85 nmol/L
same,Androstenedione percentage change vs control,[2]; 0.1 μM,−66%
same,Corticosterone absolute change vs control,[2]; 0.1 μM,+175.8 nmol/l
same,Corticosterone percentage change vs control,[2]; 0.1 μM,+213%
same,Cortisol absolute change vs control,[2]; 0.1 μM,-92.95 nmol/L
same,Cortisol percentage change vs control,[2]; 0.1 μM,−14%
same,DHEA absolute change vs control,[2]; 0.1 μM,<LLQ
same,DHEAS absolute change vs control,[2]; 0.1 μM,<LLQ
same,Prog absolute change vs control,[2]; 0.1 μM,+0.5167 nmol/l
same,Prog percentage change vs control,[2]; 0.1 μM,(+36%)
same,Testosterone absolute change vs control,[2]; 0.1 μM,-0.3250 nmol/L
same,Testosterone percentage change vs control,[2]; 0.1 μM,(−57%)
same,Androstenedione percentage change vs control,"[2]; 0.1 μM, listed as RK",(−66%*)
same,Corticosterone percentage change vs control,"[2]; 0.1 μM, listed as RK",(+213%****)
same,Cortisol percentage change vs control,"[2]; 0.1 μM, listed as RK",(−14%**)
same,11-DOC absolute change vs control,[2]; 0.5 μM,-37.70 nmol/L
same,11-DOC percentage change vs control,[2]; 0.5 μM,(−14%***)
same,17-OHP absolute change vs control,[2]; 0.5 μM,+11.45 ± 1 nmol/l
same,17-OHP percentage change vs control,[2]; 0.5 μM,(+58%*)
same,Androstenedione absolute change vs control,[2]; 0.5 μM,-47.28 nmol/L
same,Androstenedione percentage change vs control,[2]; 0.5 μM,(−95%)
same,Corticosterone absolute change vs control,[2]; 0.5 μM,+143.8 nmol/l
same,Corticosterone percentage change vs control,[2]; 0.5 μM,(+174%*)
same,Cortisol absolute change vs control,[2]; 0.5 μM,-562.7 nmol/L
same,Cortisol percentage change vs control,[2]; 0.5 μM,(−87%)
same,DHEA absolute change vs control,[2]; 0.5 μM,<LLQ
same,DHEAS absolute change vs control,[2]; 0.5 μM,<LLQ
same,Prog absolute change vs control,[2]; 0.5 μM,+22.47 nmol/l
same,Prog percentage change vs control,[2]; 0.5 μM,(+1567%)
same,Testosterone absolute change vs control,[2]; 0.5 μM,-0.4475 nmol/L
same,Testosterone percentage change vs control,[2]; 0.5 μM,(−79%)
same,total change of steroids: increase,"[2]; CPA no. 2, basal, 0.1 μM",55.6 nmol/L
same,pIC50,"[3]; Homo sapiens, 72 h, ACC no. 2, basal condition, 3 days, read-out: IC50 inhibition of cortisol production",7.12
same,pIC50,"[3]; Homo sapiens, 72 h, ACC no. 3, basal condition, 3 days, read-out: IC50 inhibition of cortisol production",7.17
same,mean difference in IC50 between both compounds,[4]; four remaining cultures,5%
same,range of difference in IC50 between both compounds,[4]; four remaining cultures,1-8%
same,mean increase IC50 compared to levoketoconazole,[4]; [8],52%
same,range of increase IC50 compared to levoketoconazole,[4]; [8],33-113%
same,pIC50,"[5]; Homo sapiens, 72 h, EAS associated hyperplasia no. 1, ACTH (85 μM) stimulated condition, 3 days, read-out: IC50 inhibition of cortisol production",6.98
same,pIC50,"[5]; Homo sapiens, 72 h, EAS associated hyperplasia no. 1, basal condition, 3 days, read-out: IC50 inhibition of cortisol production",7.58
same,pIC50,"[5]; Homo sapiens, 72 h, EAS associated hyperplasia no. 2, basal condition, 3 days, read-out: IC50 inhibition of cortisol production",7.53
same,effects on ACTH secretion corrected for cell number,[6],No effects
same,effect on cell number,[7],not observed
"CC(=O)N1CCN(c2ccc(OC[C@@H]3CO[C@@](Cn4ccnc4)(c4ccc(Cl)cc4Cl)O3)cc2)CC1 (relative stereo) [levoketoconazole, 2S,4R cis-1-acetyl-4-[4-[[2-(2,4-dichlorophenyl)-2-(1H-imidazol-1-ylmethyl)-1,3-dioxolan-4-yl]methoxyl]phenyl]piperazine]",accumulation in a subject's body over repeated dosing,[1],significantly less accumulation
same,11-DOC absolute change vs control,[2]; 0.1 μM,+14.80 nmol/l
same,11-DOC percentage change vs control,[2]; 0.1 μM,(+5.4%)
same,17-OHP absolute change vs control,[2]; 0.1 μM,+5.125 nmol/l
same,17-OHP percentage change vs control,[2]; 0.1 μM,(+26%)
same,Androstenedione absolute change vs control,[2]; 0.1 μM,-36.68 nmol/L
same,Androstenedione percentage change vs control,[2]; 0.1 μM,−79%
same,Corticosterone absolute change vs control,[2]; 0.1 μM,+49.50 nmol/l
same,Corticosterone percentage change vs control,[2]; 0.1 μM,+54%
same,Cortisol absolute change vs control,[2]; 0.1 μM,-264.2 nmol/L
same,Cortisol percentage change vs control,[2]; 0.1 μM,−40%
same,DHEA absolute change vs control,[2]; 0.1 μM,<LLQ
same,DHEAS absolute change vs control,[2]; 0.1 μM,<LLQ
same,Prog absolute change vs control,[2]; 0.1 μM,+2.350 nmol/l
same,Prog percentage change vs control,[2]; 0.1 μM,(+138%)
same,Testosterone absolute change vs control,[2]; 0.1 μM,-0.3750 nmol/L
same,Testosterone percentage change vs control,[2]; 0.1 μM,−66%
same,Androstenedione absolute change vs control,"[2]; 0.1 μM, listed as LK",-36.68 nmol/L
same,Androstenedione percentage change vs control,"[2]; 0.1 μM, listed as LK",(−79%)
same,Corticosterone percentage change vs control,"[2]; 0.1 μM, listed as LK",(+54%)
same,Cortisol absolute change vs control,"[2]; 0.1 μM, listed as LK",-264.2 nmol/L
same,Cortisol percentage change vs control,"[2]; 0.1 μM, listed as LK",(−40%)
same,Testosterone absolute change vs control,"[2]; 0.1 μM, listed as LK",-0.3750 nmol/L
same,Testosterone percentage change vs control,"[2]; 0.1 μM, listed as LK",(−66%)
same,11-DOC absolute change vs control,[2]; 0.5 μM,-98.25 nmol/L
same,11-DOC percentage change vs control,[2]; 0.5 μM,(−36%)
same,17-OHP absolute change vs control,[2]; 0.5 μM,+21.28 nmol/l
same,17-OHP percentage change vs control,[2]; 0.5 μM,(+107%)
same,Androstenedione absolute change vs control,[2]; 0.5 μM,-45.18 nmol/L
same,Androstenedione percentage change vs control,[2]; 0.5 μM,(−97%)
same,Corticosterone absolute change vs control,[2]; 0.5 μM,+218.0 nmol/l
same,Corticosterone percentage change vs control,[2]; 0.5 μM,(+239%)
same,Cortisol absolute change vs control,[2]; 0.5 μM,-633.3 nmol/L
same,Cortisol percentage change vs control,[2]; 0.5 μM,(−96%)
same,DHEA absolute change vs control,[2]; 0.5 μM,<LLQ
same,DHEAS absolute change vs control,[2]; 0.5 μM,<LLQ
same,Prog absolute change vs control,[2]; 0.5 μM,+39.95 nmol/l
same,Prog percentage change vs control,[2]; 0.5 μM,(+2350%)
same,Testosterone absolute change vs control,[2]; 0.5 μM,-0.4725 nmol/L
same,Testosterone percentage change vs control,[2]; 0.5 μM,(−83%)
same,total change of steroids: decrease,"[2]; CPA no. 2, basal, 0.1 μM",229.5 nmol/L
same,pIC50,"[3]; ACC no. 1, basal condition, 3 days, read-out: IC50 inhibition of cortisol production",8.24
same,pIC50,"[3]; ACC no. 2, basal condition, 3 days, read-out: IC50 inhibition of cortisol production",7.24
same,pIC50,"[3]; ACC no. 3, ACTH (85 μM) stimulated condition, 3 days, read-out: IC50 inhibition of cortisol production",7.49
same,pIC50,"[3]; ACC no. 3, basal condition, 3 days, read-out: IC50 inhibition of cortisol production",7.14
same,pIC50,"[3]; basal condition, ACC (n=3), read-out: mean IC50 cortisol production",7.42
same,difference in IC50 value between patients and tissue specimens,[4]; primary human adrenocortical cultures,24 fold
same,pIC50,"[5]; EAS associated hyperplasia no. 1, ACTH (85 μM) stimulated condition, 3 days, read-out: IC50 inhibition of cortisol production",7.10
same,pIC50,"[5]; EAS associated hyperplasia no. 1, basal condition, 3 days, read-out: IC50 inhibition of cortisol production",7.56
same,pIC50,"[5]; EAS associated hyperplasia no. 2, basal condition, 3 days, read-out: IC50 inhibition of cortisol production",7.66
same,pIC50,"[5]; basal condition, EAS associated adrenal hyperplasia (n=2), read-out: mean IC50 cortisol production",7.59
same,effects on ACTH secretion corrected for cell number,[6],No effects
same,effect on cell number,[7],significantly inhibited cell number

# Source: patent US12201632B2, “Levoketoconazole for treatment of congenital adrenal hyperplasia and primary aldosteronism” (Strongbridge Dublin Limited, priority 2018, dated 2025)
